Assay results: PMC9635472, “Design, synthesis, and biological evaluation of novel ciprofloxacin derivatives as potential anticancer agents targeting topoisomerase II enzyme” (Journal of Enzyme Inhibition and Medicinal Chemistry, 2022)
Where “and” joins values, the source holds several entries; their conditions need not be identical. Equal entries are not always repeated.

What was measured:
Assay type in all cases: cell-based, human
T-24 cells [1] = test: Cell cycle analysis (propidium iodide flow cytometry), T-24 cells; details: for phase of cell cycle arrest: T-24 cancer cells
Protocol: The cell cycle was done using a propidium iodide flow cytometry kit (Abcam, ab139418) according to the manufacturer’s instructions. […] After treatment, the cells were washed twice with ice-cold phosphate buffer saline, then centrifuged and fixed using ice-cold 66% (v/v) ethanol, washed with phosphate buffer saline re-suspended with 0.10 mg/ml, and stained with 200 µl propidium iodide. Cells were analysed by flow cytometry. The cell cycle distributions were calculated using cell–quest software (Bectopn Dickinson).
While the accumulation of the cells in the S phase might result from the cell cycle arrest of T-24 cells in the S phase.

T-24 cells [2] = test: Apoptosis determination by annexin V-FITC/PI assay, T-24 cells; details: at IC50, 24 h
Protocol: (§1) Apoptosis was evaluated using Annexin V fluorescein isothiocyanate (FITC) and propidium iodide (PI) using the Annexin V-FITC/PI apoptosis detection kit (Biovision, Mountain View, CA # K101-25). According to the manufacturer’s instructions after staining the cells with annexin V fluorescein (FITC) isothiocyanate. […] Cells were centrifuged and washed once with serum-containing media followed by resuspension in 500 µl of binding buffer. Then 5 µl Annexin V-FITC and 5 µl of (PI […]) were added and incubated for 5 min at room temperature in the dark. Analyses were performed using a flow cytometer (EX = 488 nm: Em = 530 nm) using a FITC signal detector and PI staining by a phycoerythrin emission signal detector.
To verify the ability of compounds 6 and 8a to induce apoptosis, a flow cytometry assay was performed using propidium iodide (PI), and immunofluorescent markers of the protein annexin-V. Dual staining for annexin-V and with PI provides the distinction between viable cells, early apoptotic cells, late apoptotic cells, and necrotic cells. […] While compound 8a induced both early and late apoptosis with 21.16- and 114.90-fold more than the control, respectively, and induced total apoptosis and necrosis with 20.1- and 4.28-fold more than the control, sequentially (Figure 14).

PC-3 cells = test: Apoptosis determination by annexin V-FITC/PI assay, PC-3 cells; details: at IC50, 24 h
Protocol: as §1
While compound 8a induced both early and late apoptosis with 41.15- and 76.77-fold more than the control, respectively, and induced total apoptosis and necrosis with 14.87- and 2.44-fold more than the control, sequentially (Figure 16).

Compound	phase of cell cycle arrest (T-24 cells [1])	increase in the percentage of cells in the S phase compared to the control (T-24 cells [1]; T-24 cells, at IC50, 24 h) [fold]	early apoptosis, fold more than the control (T-24 cells [2]) [fold]	late apoptosis, fold more than the control (T-24 cells [2]) [fold]	necrosis, fold more than the control (T-24 cells [2]) [fold]	total apoptosis, fold more than the control (T-24 cells [2])	early apoptosis, fold more than the control (PC-3 cells) [fold]	late apoptosis, fold more than the control (PC-3 cells) [fold]	necrosis, fold more than the control (PC-3 cells) [fold]	total apoptosis, fold more than the control (PC-3 cells) [fold]	increase in the percentage of cells at pre-G1 compared to the control (T-24 cells [1]; T-24 cells, at IC50, 24 h) [fold]
O=C1CC(=O)N(C(=O)CN2CCN(c3cc4c(cc3F)c(=O)c(C(=O)O)cn4C3CC3)CC2)N1 [Compound 6, 1-cyclopropyl-7-(4-(2-(3,5-dioxopyrazolidin-1-yl)-2-oxoethyl)piperazin-1-yl)-6-fluoro-4-oxo-1,4-dihydroquinoline-3-carboxylic acid]	S phase	1.4	16.27	83.38	6.25	16.77 fold and 16.8 fold	54.69	31.72	1.62	13.02	–
O=C(CN1CCN(c2cc3c(cc2F)c(=O)c(C(=O)O)cn3C2CC2)CC1)NN=C1C(=O)Nc2ccccc21 [Compound 8a, 1-Cyclopropyl-6-fluoro-4-oxo-7-(4-(2-oxo-2-(2-(2-oxoindolin-3-ylidene)hydrazinyl)ethyl)piperazin-1-yl)-1,4-dihydroquinoline-3-carboxylic acid]	S phase	1.11	21.16	114.90	4.28	20.1 fold	41.15	76.77	2.44	14.87	20.1
